In US20220002663A1, “SELECTIVE SALMONELLA OR E. COLI CULTIVATION METHOD, COMPOSITIONS AND USES” (SOLUS SCIENTIFIC SOLUTIONS LTD, priority 2018, published 2022):

Columns and labels:
Assay type in all cases: cell-based
Salmonella [1] = test: Inclusivity: culture of pure Salmonella serovars in BPW with selective agent or supplement, ELISA detection (FIG. 4, FIG. 6); conditions: 5 mg/L 4PYcq; 20 hour culture; same inoculums of pure Salmonella cultures
Source text: FIG. 4 illustrates inclusivity study data where multiple Salmonella serovars were artificially inoculated into either Buffered Peptone Water (BPW) on its own, or BPW enriched with either a selective cefsulodin, novobiocin, brilliant green lyophilised supplement run in the absence or presence of an oatmeal food matrix; or a selective cefsulodin, novobiocin, 4PYcq lyophilised supplement run in the absence of an oatmeal food matrix.
FIG. 6 illustrates inclusivity study data where multiple Salmonella serovars were artificially inoculated into BPW enriched with a selective cefsulodin, novobiocin, 4PYcq lyophilised supplement at low levels.

competing microflora = test: Suppression of competing microflora in cultures of sample types; conditions: 5 mg/L; range of sample types, including dairy and probiotic foods
Salmonella [2] = test: Recovery and detection of Salmonella from spices, herbs and flavourings, single step culture (FIGS. 9-13); conditions: spices/flavourings from the allium family; FIG. 13
Source text: This was at fractional inoculation level (2-8 cfu). Accordingly a method with the ‘Spice neutraliser’ supplement is capable of detecting Salmonella from spice/herb/flavouring samples, even when the Salmonella is present at fractional levels.
This was at a high inoculation level (40-92 cfu).
The data provided in FIGS. 9A and 9B are derived from samples that were inoculated with a relatively high level of Salmonella (FIG. 9A—77-114cfu; FIG. 9B—38 cfu).
FIG. 10 provides data derived from fractional inoculation levels (2-8 cfu). In this instance the cells are cultured in the 4PYcq/Cefsulodin/Novobiocin supplement at half the concentration of that used previously, i.e. at a working concentration of 2.5 mg/L 4PYcq, 4 mg/L Cefsulodin and 5 mg/L Novobiocin.

Row | SMILES | identification of Salmonella by ELISA after culture (Salmonella [1]) | suppression of competing microflora (competing microflora) | recovery of Salmonella (Salmonella [2])
1 | CC(C)(C)c1cc(/C=N/N=C(\N)c2ccncc2)c(O)c(C(C)(C)C)c1 [4PYcq] | positive identification of the presence of Salmonella | sufficient suppression of competing microflora | 
2 | O=S([O-])[O-].[K+].[K+] [potassium salt component, potassium sulphite] |  |  | sufficient for recovery of Salmonella
